From PubChem BioAssay (NCI)
“And” between values parts separate entries of the source, which are not always exact repeats. Equal entries are not always repeated.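 Protocol summary: plate cells (96-well), add compound at 5 concentrations, incubate 48 h, interpolate endpoints linearly. Abbreviation: GI50, concentration required for 50% inhibition of growth. TGI denotes the concentration required for complete inhibition of growth.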

Experiments:
Assay in all cases: inhibition of tumour cell growth, NCI panel, 48 h
OVCAR-8 ovarian = system: OVCAR-8 ovarian
SNB-19 CNS = system: SNB-19 CNS
MALME-3M melanoma = system: MALME-3M melanoma
SN12C renal = system: SN12C renal
MCF7 breast = system: MCF7 breast
KM12 colon = system: KM12 colon
EKVX NSCLC = system: EKVX NSCLC
DU-145 prostate = system: DU-145 prostate
NCI-H23 lung = system: NCI-H23 lung
U251 CNS = system: U251 CNS

Structure (SMILES)	GI50 (OVCAR-8 ovarian)	TGI (OVCAR-8 ovarian)	GI50 (SNB-19 CNS)	TGI (SNB-19 CNS)	GI50 (MALME-3M melanoma)	TGI (MALME-3M melanoma)	GI50 (SN12C renal)	TGI (SN12C renal)	GI50 (MCF7 breast)	TGI (MCF7 breast)	GI50 (KM12 colon)	TGI (KM12 colon)	GI50 (EKVX NSCLC)	TGI (EKVX NSCLC)	GI50 (DU-145 prostate)	TGI (DU-145 prostate)	GI50 (NCI-H23 lung)	TGI (NCI-H23 lung)	GI50 (U251 CNS)	TGI (U251 CNS)
CCOC(=O)n1cc(C2=C(c3ccc(OC)c(OC)c3)COC2=O)c2ccccc21	0.0954 µM	> 100 µM	0.0551 µM	> 100 µM	0.0666 µM	> 100 µM	0.0681 µM	> 100 µM	0.0336 µM	> 100 µM	0.0441 µM	14.1 µM	0.0938 µM	> 100 µM	0.0794 µM	> 100 µM	0.157 µM	> 100 µM	0.0536 µM	> 100 µM
O=C1CSC(=S)N1/N=C/c1ccc(Cl)c([N+](=O)[O-])c1	–	92.2 µM	–	60.8 µM	–	40.4 µM	–	56.3 µM	–	32.7 µM	–	> 100 µM	–	76.9 µM	–	> 100 µM	–	31.9 µM	–	35.3 µM
Nc1nc2[nH]cc(CCc3ccc(C(=O)N[C@@H](CCC(=O)O)C(=O)O)cc3)c2c(=O)[nH]1	0.154 µM	> 100 µM	–	> 100 µM	–	> 100 µM	0.737 µM	> 100 µM	0.0246 µM	> 100 µM	–	> 100 µM	–	> 100 µM	–	> 100 µM	–	> 100 µM	14.6 µM	> 100 µM
C=CC(=O)Nc1cc(Nc2nccc(-c3cn(C)c4ccccc34)n2)c(OC)cc1N(C)CCN(C)C	2.04 µM and 1.57 µM	5.89 µM and 4.18 µM	2.69 µM and 2.06 µM	18.4 µM and > 10 µM	2.16 µM and 1.71 µM	3.97 µM and 3.28 µM	2.2 µM and 1.2 µM	8.58 µM and 4.36 µM	1.5 µM and 1.48 µM	3.47 µM and 3.6 µM	2.31 µM and 2.12 µM	5.49 µM and 5.41 µM	0.751 µM and 0.2 µM	4.08 µM and 3.4 µM	1.76 µM and 1.33 µM	12 µM and > 10 µM	4.76 µM and 3.39 µM	17.9 µM and > 10 µM	1.63 µM and 1.71 µM	3.26 µM and 3.35 µM
Fc1cc(-c2nnc3n2N=C(c2ccc(Cl)cc2)CS3)c(Cl)cc1Cl	15.3 µM	44.3 µM	19.1 µM	51.1 µM	2.75 µM	10.5 µM	3.85 µM	16.8 µM	4.56 µM	17.9 µM	13.1 µM	36.4 µM	23.5 µM	48.1 µM	6.47 µM	17.1 µM	6.67 µM	20.8 µM	11.4 µM	28.4 µM
C/C=C/[C@@H]1O[C@@H]2COC(=O)C2=C[C@@H]1O	23.3 µM	51.8 µM	24.2 µM	> 57 µM	1.96 µM	6.85 µM	15.4 µM	31.4 µM	33.5 µM	> 100 µM	20.5 µM	53.2 µM	17.5 µM	36.7 µM	5.03 µM	18.8 µM	14.1 µM	37.3 µM	18.9 µM	38.3 µM
O=C(O)C(Cl)Cl	> 10000 µM	> 10000 µM	7520 µM and > 10000 µM	> 10000 µM	2500 µM and > 10000 µM	> 10000 µM	8180 µM and > 10000 µM	> 10000 µM	5560 µM and > 10000 µM	> 10000 µM	> 10000 µM	> 10000 µM	> 10000 µM	> 10000 µM	5720 µM and > 10000 µM	> 10000 µM	> 10000 µM	> 10000 µM	7690 µM and > 10000 µM	> 10000 µM
COc1ccccc1NC(=O)c1cc2cc(Br)ccc2cc1O	3 µM	14.7 µM	3.46 µM	16.1 µM	1.39 µM	4.87 µM	2.73 µM	9.64 µM	1.76 µM	9.3 µM	3.17 µM	10.8 µM	1.77 µM	8.1 µM	3.28 µM	14 µM	2.19 µM	8.71 µM	2.65 µM	9.58 µM
O=C1c2c(F)c(F)c(F)c(F)c2C(=O)N1c1ccc(F)cc1F	12.8 µM	50.8 µM	16.8 µM	39.8 µM	13.4 µM	33.9 µM	2.95 µM	10.1 µM	12.9 µM	> 55.9 µM	22.5 µM	65.5 µM	16.8 µM	35.9 µM	8 µM	23.4 µM	3.82 µM	9.82 µM	2.55 µM	7.95 µM
OC(c1cc(C(F)(F)F)nc2c(C(F)(F)F)cccc12)C1CCCCN1 (stereo not drawn)	1.97 µM	4.24 µM	2.75 µM	8.22 µM	2.6 µM	7.36 µM	1.78 µM	3.71 µM	1.85 µM	3.49 µM	1.87 µM	3.59 µM	2.3 µM	8.63 µM	2.76 µM	6.16 µM	2.85 µM	11.3 µM	1.79 µM	4.25 µM
CC(=C(c1ccc(OCCN2CCCCC2)cc1)c1ccc(OCCN2CCCCC2)cc1)c1ccc(Cl)cc1	0.484 µM	1.04 µM	0.438 µM	0.81 µM	0.419 µM	0.798 µM	0.414 µM	0.785 µM	0.297 µM	0.682 µM	0.454 µM	0.887 µM	0.433 µM	0.857 µM	0.458 µM	0.87 µM	0.466 µM	0.913 µM	0.387 µM	0.747 µM
O=C(Nc1nn2c(-c3cc(C(F)(F)F)cc(C(F)(F)F)c3)nnc2s1)C1CCCC1	1.18 µM	> 100 µM	0.614 µM	> 100 µM	0.27 µM	2.93 µM	0.454 µM	> 36.7 µM	0.512 µM	> 33.7 µM	0.575 µM	> 46.2 µM	0.366 µM	> 25.2 µM	1.95 µM	> 100 µM	0.394 µM	> 100 µM	0.854 µM	> 100 µM
CC(=O)OC1(C)N=NC2(CCCCC2)O1 (stereo not drawn)	–	> 100 µM	–	> 100 µM	–	> 100 µM	–	> 100 µM	–	> 100 µM	–	> 100 µM	–	> 100 µM	–	> 100 µM	–	> 100 µM	–	> 100 µM
C=C(C)C(=O)O[C@@H]1C[C@@]2(C)O[C@@H]2C[C@H](O)/C(C)=C/[C@H]2OC(=O)C(=C)[C@@H]21	–	> 100 µM	–	> 100 µM	–	57.2 µM	–	> 100 µM	–	> 100 µM	–	> 100 µM	–	> 100 µM	–	> 100 µM	–	> 100 µM	–	> 100 µM
CC(=O)OCc1ccc2c(c1)C(O)NC(=O)O2 (stereo not drawn)	–	> 100 µM	–	> 100 µM	–	> 100 µM	–	> 100 µM	–	> 100 µM	–	> 100 µM	–	> 100 µM	–	> 100 µM	–	> 100 µM	–	> 100 µM
C=C(C)C12OC1[C@@]1(C)C(=CC2=O)CCC(O)[C@@H]1C (stereo partly drawn)	–	8.24 µM	–	33.2 µM	–	25.1 µM	–	11.5 µM	–	> 100 µM	–	16.7 µM	–	6.69 µM	–	33.1 µM	–	16.2 µM	–	14.4 µM
COc1c2ccccc2c(OC)c2[nH]c(=O)ccc12	13.6 µM	> 100 µM	2.02 µM	4.11 µM	0.578 µM	1.78 µM	2.13 µM	> 21.2 µM	4.37 µM	> 54.8 µM	3.11 µM	> 27.5 µM	2.83 µM	> 100 µM	1.54 µM	3.32 µM	0.925 µM	3.47 µM	4 µM	> 69 µM
COC(=O)/C=C/c1cc(OC(C)=O)c2c(c1)[C@@H](C(=O)OC)[C@H](c1ccc(OC(C)=O)c(OC(C)=O)c1)O2	0.0795 µM	> 88.3 µM	0.431 µM	> 100 µM	0.0512 µM	48.7 µM	0.121 µM	99.7 µM	0.0339 µM	> 70.7 µM	0.203 µM	18.7 µM	2.38 µM	> 94.3 µM	0.0636 µM	–	0.0912 µM	29.7 µM	0.114 µM	41 µM
CN1CCN(C(=O)COc2ccc(C34CC5CC(CC(C5)C3)C4)cc2)CC1	18.2 µM	54.1 µM	13.6 µM	26.8 µM	7.64 µM	22.3 µM	12.6 µM	26.1 µM	12.7 µM	29.7 µM	14.8 µM	32.4 µM	24.6 µM	> 100 µM	19 µM	55.7 µM	15.3 µM	36.7 µM	10.8 µM	25 µM
COc1ccc2ncnc(Nc3ccc(OCc4ccccc4)cc3)c2c1	8.39 µM	> 25 µM	9.78 µM	> 25 µM	10.1 µM	> 25 µM	9.14 µM	> 25 µM	7.49 µM	> 25 µM	8.67 µM	> 25 µM	2.25 µM	12.9 µM	8.2 µM	> 25 µM	8.48 µM	> 25 µM	8.54 µM	> 25 µM
COc1cc2c(cc1OC)C(Cl)C(c1ccc(F)cc1)=C2Cl (stereo not drawn)	–	36.8 µM	–	37.5 µM	–	28.7 µM	–	27 µM	–	23.9 µM	–	32.3 µM	–	40.7 µM	–	37.5 µM	–	16.5 µM	–	26.6 µM
